The record followed here is US9493461B2, “Tetracyclic heterocycle compounds and methods of use thereof for the treatment of hepatitis C” (priority 2013, dated 2016).

One assay concerns HCV replicon genotype 1a. Kind of assay: HCV replicon assay, genotype 1a (cell ELISA for replicon-encoded NS3/4A). The assay is classed as cell-based, hepatitis C virus (HCV). The conditions noted are these: Hepatitis C virus, 96 h, read-out: 1a IC50 (nM), genotype 1a replicon cells, 96 hours incubation, NS3/4A ELISA readout, % of DMSO control. The method in brief: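 Stable G418-selected neomycin-resistant HCV replicon cells were plated with serially diluted compound without G418 and incubated 96 h. After washing and lysis, replicon RNA was measured indirectly by cell ELISA for replicon-encoded NS3/4A; IC50 from four-parameter fit relative to DMSO control.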

Another assay deals with HCV replicon genotype 1b. Kind of assay: HCV replicon assay, genotype 1b (cell ELISA for replicon-encoded NS3/4A). The assay is classed as cell-based, hepatitis C virus (HCV). The following applies: Hepatitis C virus, 96 h, read-out: 1b IC50 (nM), genotype 1b replicon cells, 96 hours incubation, NS3/4A ELISA readout, % of DMSO control. An outline of the steps:
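Genotype 1b replicon cells (neomycin-selected, G418 removed for assay) incubated 96 h with compound dilution series. Replication measured by cell ELISA for replicon-encoded NS3/4A after lysis; IC50 from four-parameter fit relative to DMSO control.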

For the compound `CNC(=O)c1c(-c2ccc(C(F)(F)F)nc2)oc2cc(N(C)S(C)(=O)=O)c(-c3ccc4ncn5c6cccc(F)c6cc5c4n3)cc12` [Example 1, 5-(11-fluoropyrido[3′,2′:4,5]pyrimido[1,6-a]indol-2-yl)-N-methyl-6-(N-methylmethylsulfonamido)-2-(6-(trifluoromethyl)pyridin-3-yl)benzofuran-3-carboxamide], the IC50 was determined as 6.56 nM in the assay with HCV replicon genotype 1a and 4.01 nM with HCV replicon genotype 1b.
The like results for `CNC(=O)c1c(-c2ccc(C)nc2)oc2cc(N(C)S(C)(=O)=O)c(-c3ccc4ncn5c6cccc(F)c6cc5c4n3)cc12` [Example 5] were, in that order, 3.7 nM and 7.4 nM.
For `CNC(=O)c1c(-c2ccc(F)cc2)oc2cc(N(C)S(C)(=O)=O)c(-c3ccc4nc(CN)n5c6cccc(F)c6cc5c4n3)cc12` [Example 111], in that order: 4.15 nM and 7.79 nM.
For `CNC(=O)c1c(-c2ccc(F)cc2)oc2cc(N(C)S(C)(=O)=O)c(-c3ccc4nc(CN5CC6(CCOCC6)C5)n5c6cccc(C#N)c6cc5c4n3)cc12` [Example 127], in that order: 1.5 nM and 2.57 nM.
Consider `CNC(=O)c1c(-c2ccc(F)cc2)oc2cc(N(C)S(C)(=O)=O)c(-c3ccc4nc(CN5CCC(F)(F)CC5)n5c6cccc(F)c6cc5c4n3)cc12` [Example 92], for which the IC50 came to 14.6 nM in the assay with HCV replicon genotype 1a and 23.7 nM with HCV replicon genotype 1b.
For `CNC(=O)c1c(-c2ccc(F)cc2)oc2cc(N(C)S(C)(=O)=O)c(-c3ccc4nc(CS(C)(=O)=O)n5c6cccc(F)c6cc5c4n3)cc12` [Example 23, 5-(11-fluoro-6-((methylsulfonyl)methyl)pyrido[3′,2′:4,5]pyrimido[1,6-a]indol-2-yl)-2-(4-fluorophenyl)-N-methyl-6-(N-methylmethylsulfonamido)benzofuran-3-carboxamide], in that order: 1.85 nM and 2.98 nM.
Consider `CNC(=O)c1c(-c2ccc(OC(F)F)nc2)oc2cc(N(C)S(C)(=O)=O)c(-c3ccc4ncn5c6cccc(F)c6cc5c4n3)cc12` [Example 2], for which the results for the IC50 in the assay on HCV replicon genotype 1a and with HCV replicon genotype 1b were 2.83 nM and 6.91 nM, respectively.
The like results for `CNC(=O)c1c(-c2ccc(F)cc2)oc2cc(N(C)S(C)(=O)=O)c(-c3ccc4nc(CN5CC(C)(C#N)C5)n5c6cccc(C#N)c6cc5c4n3)cc12` [Example 130] were, in that order, 1.22 nM and 1.39 nM.
The like results for `CNC(=O)c1c(-c2ccc(F)cc2F)oc2cc(N(C)S(C)(=O)=O)c(-c3ccc4nc(CN5CC(C)(C#N)C5)n5c6cccc(F)c6cc5c4n3)cc12` [Example 139] were, in that order, 2.79 nM and 3.16 nM.
For `CNC(=O)c1c(-c2ccc(F)cc2)oc2cc(N(C)S(C)(=O)=O)c(-c3ccc4nc(CN5CC(O)C5)n5c6cccc(F)c6cc5c4n3)cc12` [Example 77], in that order: 5.26 nM and 5.61 nM.
Turning to `CNC(=O)c1c(-c2ccc(F)cc2)oc2cc(N(C)S(C)(=O)=O)c(-c3ccc4nc(CN5CC(O)(C(F)(F)F)C5)n5c6cccc(F)c6cc5c4n3)cc12` [Example 94], the IC50 amounted to 4.33 nM with HCV replicon genotype 1a and 6.98 nM with HCV replicon genotype 1b.
For `CNC(=O)c1c(-c2ccc(C)nc2)oc2cc(N(C)S(C)(=O)=O)c(-c3cc4c(cn3)ncn3c5cccc(F)c5cc43)cc12` [Example 19], in that order: 2.79 nM and 5.64 nM.
For `CNC(=O)c1c(-c2ccc(F)cc2)oc2cc(N(C)S(C)(=O)=O)c(-c3ccc4c(n3)-c3cc5c(F)cccc5n3C(C)(C)N4)cc12` [Example 66, 5-(11-fluoro-6,6-dimethyl-5,6-dihydropyrido[3′,2′:4,5]pyrimido[1,6-a]indol-2-yl)-2-(4-fluorophenyl)-N-methyl-6-(N-methylmethylsulfonamido)benzofuran-3-carboxamide], in that order: 5.96 nM and 9.23 nM.
Consider `CNC(=O)c1c(-c2ccc(F)cc2)oc2cc(N(C)S(C)(=O)=O)c(-c3ccc4nc(CN5CC6CC5CO6)n5c6cccc(F)c6cc5c4n3)cc12` (stereo not shown) [Example 109], for which the IC50 in the assay with HCV replicon genotype 1a came to 8.1 nM; in the assay with HCV replicon genotype 1b, 11.2 nM.
The like results for `CNC(=O)c1c(-n2ccc(C)cc2=O)oc2cc(N(C)S(C)(=O)=O)c(-c3ccc4nc(CN5CC(F)C5)n5c6cccc(F)c6cc5c4n3)cc12` [Example 30] were, in that order, 2.41 nM and 2.32 nM.
For `CNC(=O)c1c(-c2ccc(F)cc2)oc2cc(N(C)S(C)(=O)=O)c(-c3ccc4nc(CN5CCC(F)(C#N)CC5)n5c6cccc(F)c6cc5c4n3)cc12` [Example 106], in that order: 7.25 nM and 8.2 nM.
For `CNC(=O)c1c(-c2ccc(F)cc2)oc2cc(N(C)S(C)(=O)=O)c(-c3ccc4nc(CN5[C@H](C)COC[C@@H]5C)n5c6cccc(F)c6cc5c4n3)cc12` [Example 96], in that order: 7.76 nM and 11.2 nM.
Take `CNC(=O)c1c(-c2ccc(F)cc2F)oc2cc(N(C)S(C)(=O)=O)c(-c3cc4c(cn3)ncn3c5cccc(F)c5cc43)cc12` [Example 75]: the results for the IC50 with HCV replicon genotype 1a and in the assay on HCV replicon genotype 1b were 1.03 nM and 2.78 nM, respectively.
For `CNC(=O)c1c(-n2ccc(C)cc2=O)oc2cc(N(C)S(C)(=O)=O)c(-c3ccc4nc(CN5CC(C)(C#N)C5)n5c6cccc(F)c6cc5c4n3)cc12` [Example 36], in that order: 2.49 nM and 3.21 nM.
For `CNC(=O)c1c(-c2ccc(F)cc2)oc2cc(N(C)S(C)(=O)=O)c(-c3ccc4c(n3)-c3cc5c(F)cccc5n3CN4CC(=O)O)cc12` [Example 70, 2-(11-fluoro-2-(2-(4-fluorophenyl)-3-(methylcarbamoyl)-6-(N-methylmethylsulfonamido)benzofuran-5-yl)pyrido[3′,2′:4,5]pyrimido[1,6-a]indol-5(6H)-yl)acetic acid], in that order: 35.2 nM and 26.8 nM.
For `CNC(=O)c1c(-c2ccc(F)cc2)oc2cc(N(C)S(C)(=O)=O)c(-c3ccc4c(n3)-c3cc5c(F)cccc5n3C(CO)N4)cc12` (stereo not shown) [Example 64, 5-(11-fluoro-6-(hydroxymethyl)-5,6-dihydropyrido[3′,2′:4,5]pyrimido[1,6-a]indol-2-yl)-2-(4-fluorophenyl)-N-methyl-6-(N-methylmethylsulfonamido)benzofuran-3-carboxamide], in that order: 11.8 nM and 11.8 nM.
As for `CNC(=O)c1c(-c2ccc(F)cc2)oc2cc(N(C)S(C)(=O)=O)c(-c3ccc4nc(CN5CCOCC5)n5c6cccc(C#N)c6cc5c4n3)cc12` [Example 134], the results for the IC50 in the assay with HCV replicon genotype 1a and in the assay with HCV replicon genotype 1b were 2.6 nM and 2.02 nM, respectively.
Take `CNC(=O)c1c(-c2ccc(F)cc2)oc2cc(N(C)S(C)(=O)=O)c(-c3ccc4nc(CN5CC(C)(F)C5)n5c6cccc(C#N)c6cc5c4n3)cc12` [Example 128]: the figures for the IC50 in the assay with HCV replicon genotype 1a and in the assay on HCV replicon genotype 1b were 2.3 nM and 2.98 nM, respectively.
The like results for `CNC(=O)c1c(-c2ccc(F)cc2)oc2cc(N(C)S(C)(=O)=O)c(-c3ccc4nc(CN5CC(C(C)(C)O)C5)n5c6cccc(F)c6cc5c4n3)cc12` [Example 97] were, in that order, 2.98 nM and 3.49 nM.
On to `CNC(=O)c1c(-c2ccc(F)cc2)oc2cc(N(C)S(C)(=O)=O)c(-c3ccc4nc(CN5CC(F)C5)n5c6cccc(F)c6cc5c4n3)cc12` [Example 76, 3-fluoro-1-((11-fluoro-2-(2-(4-fluorophenyl)-3-(methylcarbamoyl)-6-(N-methylmethylsulfonamido)benzofuran-5-yl)pyrido[3′,2′:4,5]pyrimido[1,6-a]indol-6-yl)methyl)azetidin-1-ium methanesulfonate], for which the IC50 with HCV replicon genotype 1a came to 4.13 nM; in the assay with HCV replicon genotype 1b, 3.78 nM.
For `CNC(=O)c1c(-c2ccc(F)cc2F)oc2cc(N(C)S(C)(=O)=O)c(-c3ccc4nc(CN5CC(C)(O)C5)n5c6cccc(F)c6cc5c4n3)cc12` [Example 142], in that order: 3.05 nM and 2.85 nM.
For `CNC(=O)c1c(C(=O)N2CC(F)C2)oc2cc(N(C)S(C)(=O)=O)c(-c3ccc4ncn5c6cccc(F)c6cc5c4n3)cc12` [Example 50, 2-(3-fluoroazetidine-1-carbonyl)-5-(11-fluoropyrido[3′,2′:4,5]pyrimido[1,6-a]indol-2-yl)-N-methyl-6-(N-methylmethylsulfonamido)benzofuran-3-carboxamide], in that order: 18.1 nM and 19.8 nM.
On to `CNC(=O)c1c(-c2ccc(F)cc2F)oc2cc(N(C)S(C)(=O)=O)c(-c3ccc4c(n3)-c3cc5c(F)cccc5n3CN4)cc12` [Example 58], for which the IC50 in the assay on HCV replicon genotype 1a stood at 1.68 nM; in the assay on HCV replicon genotype 1b, 2.76 nM.
For `CNC(=O)c1c(-c2ccc(F)cc2)oc2cc(N(C)S(C)(=O)=O)c(-c3ccc4nc(CN5CCN(C)CC5)n5c6cccc(F)c6cc5c4n3)cc12` [Example 108], in that order: 6.08 nM and 8.48 nM.
For `CNC(=O)c1c(-c2ccc(F)cc2C)oc2cc(N(C)S(C)(=O)=O)c(-c3ccc4ncn5c6cccc(F)c6cc5c4n3)cc12` [Example 6], in that order: 3.2 nM and 5.08 nM.
For `CNC(=O)c1c(-c2ccc(F)cc2)oc2cc(N(C)S(C)(=O)=O)c(-c3ccc4c(n3)-c3cc5c(F)cccc5n3C(CC(=O)OC)N4)cc12` (stereo not shown) [Example 71, methyl 2-(11-fluoro-2-(2-(4-fluorophenyl)-3-(methylcarbamoyl)-6-(N-methylmethylsulfonamido)benzofuran-5-yl)-5,6-dihydropyrido[3′,2′:4,5]pyrimido[1,6-a]indol-6-yl)acetate], in that order: 2.98 nM and 3.44 nM.
With `CNC(=O)c1c(-c2ccc(F)cc2)oc2cc(N(C)S(C)(=O)=O)c(-c3ccc4nc(CN5CC(C)(C#N)C5)n5c6cccc(F)c6cc5c4n3)cc12` [Example 89], the IC50 in the assay with HCV replicon genotype 1a amounted to 3.41 nM; with HCV replicon genotype 1b, 3.45 nM.
